The values below come from paper doi:10.1101/2021.04.08.439011v1 (biorxiv, 2021).

Targets include DYRK1B (Homo sapiens, UniProt Q9Y463); LTK (Homo sapiens, UniProt P29376); STK33 (Homo sapiens, UniProt Q9BYT3); TTBK1 (Homo sapiens, UniProt Q5TCY1).
Assay in all cases: biochemical
Conditions in all cases: read-out: Residual activity

Chain of LTK (P29376 whole entry): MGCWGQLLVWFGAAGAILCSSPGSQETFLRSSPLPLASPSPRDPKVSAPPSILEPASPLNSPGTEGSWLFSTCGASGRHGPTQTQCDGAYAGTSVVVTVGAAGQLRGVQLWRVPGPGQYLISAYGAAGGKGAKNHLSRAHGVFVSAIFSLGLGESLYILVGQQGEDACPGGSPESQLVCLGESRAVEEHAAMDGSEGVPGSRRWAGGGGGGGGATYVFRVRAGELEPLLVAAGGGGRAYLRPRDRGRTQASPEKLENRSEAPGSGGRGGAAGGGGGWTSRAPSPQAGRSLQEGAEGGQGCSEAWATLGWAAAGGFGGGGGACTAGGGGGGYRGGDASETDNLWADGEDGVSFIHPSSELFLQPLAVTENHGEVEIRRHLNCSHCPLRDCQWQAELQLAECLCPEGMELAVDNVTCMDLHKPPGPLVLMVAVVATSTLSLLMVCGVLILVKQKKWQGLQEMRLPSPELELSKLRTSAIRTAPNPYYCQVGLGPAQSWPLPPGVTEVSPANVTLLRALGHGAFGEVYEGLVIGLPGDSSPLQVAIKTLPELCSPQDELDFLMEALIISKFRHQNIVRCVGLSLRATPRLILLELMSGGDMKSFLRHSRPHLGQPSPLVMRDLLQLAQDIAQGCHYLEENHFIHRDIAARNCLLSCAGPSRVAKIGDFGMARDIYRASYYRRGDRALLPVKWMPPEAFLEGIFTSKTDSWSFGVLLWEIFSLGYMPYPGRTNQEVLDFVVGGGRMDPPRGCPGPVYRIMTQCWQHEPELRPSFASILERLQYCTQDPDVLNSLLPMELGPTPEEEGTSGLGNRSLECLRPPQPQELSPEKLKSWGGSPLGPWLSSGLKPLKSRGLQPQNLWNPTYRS
Chain of STK33 (Q9BYT3 whole entry): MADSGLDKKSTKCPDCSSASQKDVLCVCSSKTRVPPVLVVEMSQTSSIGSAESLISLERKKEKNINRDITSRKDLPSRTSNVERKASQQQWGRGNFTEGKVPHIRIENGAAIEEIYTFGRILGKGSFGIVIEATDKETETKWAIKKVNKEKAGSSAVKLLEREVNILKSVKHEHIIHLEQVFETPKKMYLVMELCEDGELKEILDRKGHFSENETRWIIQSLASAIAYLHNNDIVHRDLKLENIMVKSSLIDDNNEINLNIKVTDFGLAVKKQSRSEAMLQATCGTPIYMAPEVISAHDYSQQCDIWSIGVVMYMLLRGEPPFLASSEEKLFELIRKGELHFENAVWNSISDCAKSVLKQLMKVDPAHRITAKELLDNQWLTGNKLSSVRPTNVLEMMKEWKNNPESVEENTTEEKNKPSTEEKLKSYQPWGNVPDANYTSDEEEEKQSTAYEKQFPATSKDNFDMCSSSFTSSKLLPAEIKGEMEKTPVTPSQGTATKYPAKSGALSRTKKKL
Chain of DYRK1B (Q9Y463 whole entry): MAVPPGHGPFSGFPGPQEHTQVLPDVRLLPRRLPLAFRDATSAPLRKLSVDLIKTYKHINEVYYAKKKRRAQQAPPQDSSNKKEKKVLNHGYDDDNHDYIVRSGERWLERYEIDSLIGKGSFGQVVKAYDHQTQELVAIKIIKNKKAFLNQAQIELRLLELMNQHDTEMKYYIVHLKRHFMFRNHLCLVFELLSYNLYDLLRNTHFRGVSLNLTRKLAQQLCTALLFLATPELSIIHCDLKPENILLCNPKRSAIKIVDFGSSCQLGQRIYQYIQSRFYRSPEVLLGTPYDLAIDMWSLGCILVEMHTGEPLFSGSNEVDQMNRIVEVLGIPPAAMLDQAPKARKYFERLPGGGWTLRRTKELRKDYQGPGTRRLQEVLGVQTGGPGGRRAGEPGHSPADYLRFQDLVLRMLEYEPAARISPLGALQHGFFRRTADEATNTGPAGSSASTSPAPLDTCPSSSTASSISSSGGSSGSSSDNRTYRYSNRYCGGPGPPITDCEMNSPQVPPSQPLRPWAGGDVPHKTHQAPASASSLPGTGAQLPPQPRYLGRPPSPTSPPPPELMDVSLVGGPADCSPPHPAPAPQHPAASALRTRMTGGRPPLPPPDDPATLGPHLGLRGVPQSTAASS
Chain of TTBK1 (Q5TCY1 whole entry): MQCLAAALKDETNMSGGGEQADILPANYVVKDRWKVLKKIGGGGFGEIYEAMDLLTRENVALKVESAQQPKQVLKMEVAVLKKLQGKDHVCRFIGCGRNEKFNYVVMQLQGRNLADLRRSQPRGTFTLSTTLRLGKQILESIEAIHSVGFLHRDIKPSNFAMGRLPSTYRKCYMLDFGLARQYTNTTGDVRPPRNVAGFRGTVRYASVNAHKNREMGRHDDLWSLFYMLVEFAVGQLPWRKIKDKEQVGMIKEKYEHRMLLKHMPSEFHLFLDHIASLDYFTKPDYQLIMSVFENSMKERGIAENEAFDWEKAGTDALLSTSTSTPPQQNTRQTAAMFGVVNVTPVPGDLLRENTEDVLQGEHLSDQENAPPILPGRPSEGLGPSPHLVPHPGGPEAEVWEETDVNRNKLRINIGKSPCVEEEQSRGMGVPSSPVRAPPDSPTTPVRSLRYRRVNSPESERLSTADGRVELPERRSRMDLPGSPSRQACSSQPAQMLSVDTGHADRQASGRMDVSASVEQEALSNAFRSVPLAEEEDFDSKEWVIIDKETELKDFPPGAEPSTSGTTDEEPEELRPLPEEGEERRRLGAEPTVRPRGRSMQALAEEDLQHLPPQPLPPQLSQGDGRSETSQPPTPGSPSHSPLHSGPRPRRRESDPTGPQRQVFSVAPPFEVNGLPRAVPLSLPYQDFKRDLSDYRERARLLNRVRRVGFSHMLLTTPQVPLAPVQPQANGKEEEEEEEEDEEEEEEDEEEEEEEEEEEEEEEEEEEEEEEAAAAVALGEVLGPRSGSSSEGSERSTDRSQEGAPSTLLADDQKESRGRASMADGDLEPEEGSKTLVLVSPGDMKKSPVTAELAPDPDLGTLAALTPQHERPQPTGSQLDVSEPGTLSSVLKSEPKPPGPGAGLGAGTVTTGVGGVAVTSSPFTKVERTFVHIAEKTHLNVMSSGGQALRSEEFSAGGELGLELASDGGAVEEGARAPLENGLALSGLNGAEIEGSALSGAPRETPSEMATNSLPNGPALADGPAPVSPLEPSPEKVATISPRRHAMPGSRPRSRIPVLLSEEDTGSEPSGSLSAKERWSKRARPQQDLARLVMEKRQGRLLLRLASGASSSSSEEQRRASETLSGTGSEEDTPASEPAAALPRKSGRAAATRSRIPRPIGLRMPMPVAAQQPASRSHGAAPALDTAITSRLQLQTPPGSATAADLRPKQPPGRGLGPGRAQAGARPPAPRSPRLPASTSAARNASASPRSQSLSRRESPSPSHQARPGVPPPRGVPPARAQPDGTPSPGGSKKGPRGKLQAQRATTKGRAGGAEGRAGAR

For `CNc1ncc2cc(-c3ccc(-c4ncccc4F)cc3Cl)c(=O)n(CC3OCC(N)CO3)c2n1` (stereo not shown) [compound 10, 8-(((2r,5r)-5-Amino-1,3-dioxan-2-yl)methyl)-6-(2-chloro-4-(3-fluoropyridin-2-yl)phenyl)-2-(methylamino)pyrido[2,3-d]pyrimidin-7(8H)-one], the remaining activity at 1 µM is 98% on DYRK1B, 105% at LTK, 89% on STK33 and 131% at TTBK1.
